The source of these data is publication PMC4789278, “Pharmacological inhibition of LSD1 for the treatment of MLL-rearranged leukemia” (Journal of Hematology & Oncology, 2016).

SMILES strings stand for the structures. Read-outs that look alike come from different tables or passages of the source. Some results are limits rather than exact numbers.

Experiment [1] has as its system MV4-11 leukemia cells. Details: method as in PMID 22924785. As to conditions: read-out: MV4-11 proliferation EC50; cited from earlier work.
Experiment [2] relates to Molm-13 leukemia cells. The arrangement: method as in PMID 22924785. The following applies: read-out: Molm-13 proliferation EC50; cited from earlier work.
Experiment [3] deals with H3K79 methylation in MV4-11 cells. Details: method as in PMID 23795283. The following applies: read-out: IC50 for inhibition of H3K79 methylation; cited from earlier work.
A further experiment concerns the target T1, recombinant human LSD1 (Homo sapiens, UniProt O60341).
T1 construct: Human LSD1 catalytic domain (172-833) was cloned; made in house; host or cells: E. coli BL21-CodonPlus (Agilent)
In words: LSD1 enzyme inhibition assay (HRP/Amplex red). Format: biochemical. As to conditions: for Selectivity index for LSD1: LSD1 versus MAO-A and -B. How it is done:
The LSD1 inhibition assay was performed with the reaction rate (i.e., amount of the product H2O2, Additional file 1: Figure S2) being quantitatively determined by adding horseradish peroxidase (HRP) and a HRP fluorescence substrate Amplex red.
Human LSD1 catalytic domain (172-833) was cloned and inserted into pGEX-KG vector. The correctness of insert was verified by sequencing. BL21-CodonPlus strain (Agilent) was transformed with the pGEX-KG-LSD1 plasmid and cultured at 37 °C in LB medium containing ampicillin (50 μg/mL) and chloramphenicol (34 μg/mL). Upon reaching an optical density of ~0.9 at 600 nm, LSD1 expression was induced by adding 0.2 mM isopropylthiogalactoside at 25 °C for 20 h. Cells were harvested, lysed, and centrifuged at 20,000 rpm for 20 min, and the supernatant was collected and subjected to an affinity column chromatography using the glutathione sepharose resin.
The inhibition assay for the recombinant LSD1 was performed using a published protocol, with the reaction rate (i.e., amount of the product H2O2) being quantitatively determined by adding HRP and a HRP fluorescence substrate Amplex red. […] The total volume of the reaction mixture is 60 μL. After 20 min, 60-μL solution containing HRP (0.01 unit) and Amplex red (80 μM) was added and the fluorescence of each well was determined using a Beckman DTX-880 microplate reader (excitation at 535 and emission at 595 nm). Data were imported into Prism 5.0 (GraphPad), and the IC50 values were calculated by using the sigmoidal dose response curve fitting in the software. The reported IC50s were the mean values of at least three independent experiments.

The subject of experiment [4] is MV4-11 leukemia cells. In words: Antiproliferation assay (XTT), MV4-11. As to conditions: Homo sapiens, MV4-11, 360 h; 15-day treatment; MLL-rearranged leukemia; read-out: MV4-11 EC50 (antiproliferative). The experiment is classed as cell-based. How it is done:
Next, these three compounds were tested for their cellular activity against proliferation of MV4-11 leukemia cells bearing MLL-AF4 fusion oncogene.
(§1) These compounds were incubated with a panel of six human leukemia and solid tumor cell lines, including two MLL-rearranged leukemia cells MV4-11 and Molm-13 containing fusion oncogenes MLL-AF4 and -AF9, respectively. […] Also included in the studies are breast cancer MCF-7 and prostate cancer LNCaP cells.
(§2) Proliferation inhibition assay for suspension leukemia cells was performed using an XTT assay kit (Roche) with our previously described method. Proliferation inhibition assay for solid tumor cell lines MCF-7 and LNCaP was performed using our previous described MTT assay. The antiproliferation EC50 values were determined by Prism, and the reported results were the mean values of at least three independent experiments.

Experiment [5] concerns Molm-13 leukemia cells. The experiment can be described thus: Antiproliferation assay (XTT), Molm-13. Format: cell-based. The following applies: Homo sapiens, MOLM-13, 360 h; 15-day treatment; MLL-rearranged leukemia; read-out: Molm-13 EC50 (antiproliferative). How it is done: as §1, §2
A further experiment has as its system NB4 leukemia cells. The experiment can be described thus: Antiproliferation assay (XTT), NB4. Format: cell-based. The following applies: Homo sapiens, 360 h; 15-day treatment; non-MLL leukemia cells; read-out: NB4 EC50 (antiproliferative). The procedure:
(§3) We next examined the spectrum of antitumor activity for compounds 1–4. These compounds were incubated with a panel of six human leukemia and solid tumor cell lines, including two MLL-rearranged leukemia cells MV4-11 and Molm-13 containing fusion oncogenes MLL-AF4 and -AF9, respectively. […] Also included in the studies are breast cancer MCF-7 and prostate cancer LNCaP cells. […]
as §2

The test system of the next experiment is U937 leukemia cells. The experiment can be described thus: Antiproliferation assay (XTT), U937. Format: cell-based. As to conditions: Homo sapiens, U-937, 360 h; 15-day treatment; non-MLL leukemia cells; read-out: U937 EC50 (antiproliferative). The procedure:
as §3, §2

For experiment [6], the system named is breast cancer MCF-7 cells. In words: Antiproliferation assay (MTT), MCF-7. Format: cell-based. The following applies: Homo sapiens, MCF7, 360 h, 15-day treatment, read-out: MCF-7 EC50 (antiproliferative). How it is done: as §1, §2
Experiment [7] relates to prostate cancer LNCaP cells. The experiment can be described thus: Antiproliferation assay (MTT), LNCaP. The experiment is classed as cell-based. As to conditions: Homo sapiens, 360 h, 15-day treatment, read-out: LNCaP EC50 (antiproliferative). How it is done: as §3, §2
Another experiment concerns the target T2, human MAO-A (Homo sapiens, UniProt P21397).
T2 construct: purchased Sigma
T2 sequence (P21397 1-527): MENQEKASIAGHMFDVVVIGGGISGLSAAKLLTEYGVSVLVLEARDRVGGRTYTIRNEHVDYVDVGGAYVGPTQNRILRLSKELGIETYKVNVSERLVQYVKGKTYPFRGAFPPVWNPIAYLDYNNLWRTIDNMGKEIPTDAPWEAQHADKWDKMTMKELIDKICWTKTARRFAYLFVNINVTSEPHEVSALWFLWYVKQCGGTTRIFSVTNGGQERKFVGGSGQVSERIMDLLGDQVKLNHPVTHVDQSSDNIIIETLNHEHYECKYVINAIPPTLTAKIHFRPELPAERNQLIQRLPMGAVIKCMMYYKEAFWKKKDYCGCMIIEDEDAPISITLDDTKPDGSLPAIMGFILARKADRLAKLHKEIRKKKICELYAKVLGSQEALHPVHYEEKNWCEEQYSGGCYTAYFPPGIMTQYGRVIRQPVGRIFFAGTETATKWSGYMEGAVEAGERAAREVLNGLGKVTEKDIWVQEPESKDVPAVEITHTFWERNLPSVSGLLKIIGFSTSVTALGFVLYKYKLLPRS
The experiment can be described thus: MAO-A inhibition (MAO-Glo). Format: biochemical. As to conditions: read-out: MAO-A IC50. The procedure:
The cyclopropylamine LSD1 inhibitors were generally derived from MAO-A/-B inhibitor tranylcypromine, an antidepression drug. Because MAO-A and -B play important roles in the degradation of neurotransmitters (e.g., serotonin and dopamine) in the central nervous system, selective inhibition for LSD1 is highly desirable.
(§4) Recombinant human MAO-A and -B were purchased from Sigma. The inhibitory activity was determined using MAO-Glo assay kit (Promega). In brief, following the manufacturer’s protocol, assays were performed in 384-well white plates (Corning) using MAO-A or -B (100 nM) with a final volume of 20 μL. Reactions were quenched after 60 min by adding reconstituted luciferin detection reagent (20 μL/well); 20 min after addition of the detection reagent, the luminescence of each well was measured using Beckman DTX-880 microplate reader. IC50 calculation was similar to that of LSD1.

For another experiment, the target named is T3, human MAO-B (Homo sapiens, UniProt P27338).
T3 construct: purchased Sigma
T3 sequence (P27338 1-520): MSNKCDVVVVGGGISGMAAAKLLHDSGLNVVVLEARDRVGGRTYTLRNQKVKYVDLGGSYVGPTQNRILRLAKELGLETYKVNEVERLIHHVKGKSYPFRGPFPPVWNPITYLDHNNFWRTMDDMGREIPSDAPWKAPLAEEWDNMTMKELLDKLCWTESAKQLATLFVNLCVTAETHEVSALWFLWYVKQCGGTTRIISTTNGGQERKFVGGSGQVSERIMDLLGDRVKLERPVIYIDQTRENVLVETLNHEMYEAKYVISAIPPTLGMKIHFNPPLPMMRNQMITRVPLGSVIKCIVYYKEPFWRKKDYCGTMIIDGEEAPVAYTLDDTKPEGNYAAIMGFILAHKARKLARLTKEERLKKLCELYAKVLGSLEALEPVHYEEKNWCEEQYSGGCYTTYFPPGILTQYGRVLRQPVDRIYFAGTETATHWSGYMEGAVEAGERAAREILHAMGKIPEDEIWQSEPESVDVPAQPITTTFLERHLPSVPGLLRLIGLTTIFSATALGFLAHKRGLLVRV
In words: MAO-B inhibition (MAO-Glo). The experiment is classed as biochemical. How it is done: Because MAO-A and -B play important roles in the degradation of neurotransmitters (e.g., serotonin and dopamine) in the central nervous system, selective inhibition for LSD1 is highly desirable.
as §4

Experiment [8] has as its system human primary leukemia cells from an AML patient with MLL-ENL fusion oncogene. In words: Colony-forming assay. Format: cell-based. The following applies: 336 h, colonies counted after 14 days, read-out: colony-forming ability EC50. How it is done: Colony-forming assay using non-serum culture media represents a useful method to assess self-renewal capacity of stem-like cancer cells. The number of cell colonies formed in the assay reflects the proportion of stem-like cells in a given number of cancer cells. […] Human MLL-rearranged AML samples will be obtained from the Children’s Oncology Group (COG) Biopathology Center, in accordance with the IRB-approved protocol H-24170. The colony-forming assay was performed according to our previously published method. After 14 days, the colony number of each culture dish was counted and imported into Prism 5.0 and EC50 values were determined by using the sigmoidal dose response curve fitting in the software.

As for `CC(C)N(CCCNC(=O)Nc1ccc(C(C)(C)C)cc1)CC1OC(n2cnc3c(N)ncnc32)C(O)C1O` (centres unmarked) [SYC-522], the figures for the EC50 in the experiment with MV4-11 leukemia cells [1] and in the experiment with Molm-13 leukemia cells [2] were about 4 µM and about 7 µM, respectively. In addition, the IC50 in experiment [3] was about 0.2 µM.
For `NC1CC1c1ccc(-c2ccc(F)nc2)cc1` (centres unmarked) [Compound 4], the IC50 is 5.3 µM on recombinant human LSD1, 0.42 µM at human MAO-A and 3.1 µM against human MAO-B. Also, the “fold less potent than compound 2 against LSD1” value at recombinant human LSD1 was ~ 70 fold. Moreover, the “Selectivity index for LSD1” value at recombinant human LSD1 is recorded as under 0.58. In addition, the EC50 is 1.4 µM in the experiment with MV4-11 leukemia cells [4]; 12 µM in the experiment on Molm-13 leukemia cells [5]; over 50 µM with NB4 leukemia cells; 17.5 µM in the experiment on U937 leukemia cells; over 50 µM in experiment [6]; over 50 µM in experiment [7].
On to `CN1CCN(C(=O)CNC2CC2c2ccc(Br)cc2)CC1` (centres unmarked) [Compound 3], for which the figures for the IC50 at recombinant human LSD1, on human MAO-A and against human MAO-B were 0.035 µM, 7.3 µM and 16.3 µM, respectively. Further, the “selectivity for LSD1 inhibition over MAO-A and -B” value at recombinant human LSD1 was over 200 fold. In addition, the “Selectivity index for LSD1” value at recombinant human LSD1 is over 208. Also, the EC50 in the experiment with MV4-11 leukemia cells [4] was 0.02 µM; in the experiment with Molm-13 leukemia cells [5], 0.18 µM; with NB4 leukemia cells, over 50 µM; in the experiment on U937 leukemia cells, over 50 µM; in [6] it was 13.5 µM; in [7], 29.9 µM. In experiment [8], the EC50 is 0.48 µM.
